Ends that are not written are not given here.

This note sets out measurements from patent US20240343835A1, “COVALENT HETEROBIVALENT ANTIBODY INHIBITORS AND LIGANDS” (UNIVERSITY OF NOTRE DAME DU LAC, priority 2015, published 2024).

Test [1] concerns the target nucleotide binding site (NBS) of IgEs. Nature of the test: Fluorescence quenching binding of NBS ligand. The note with it: monovalent affinity.
The target in a further test is IgE^dansyl. Nature of the test: Fluorescence quenching binding of dansyl molecules to IgE^dansyl. The note with it: dissociation constants for hapten-Napht conjugates. How it is done: To determine binding of HBI molecules to respective antibodies, we observed the quenching of tryptophan resides using a method previously described (Junutula JR, et al., Nat. Biotechnol. 2008; 26 (8): 925-932). Briefly, either IgE^dansyl or IgG^Penicillin was diluted into a non-binding 96-well dish at 40 nM in PBS. Then, HBI molecules which contained either a dansyl or DNP group were titrated into well and fluorescence (Ex. 280 nm, Em. 335) was observed using a SpectraMax M2 spectrophotometer. PBS and free tryptamine diluted to similar initial fluorescence values were used as controls to account for HBI fluorescence and non-specific quenching respectively.

The target of test [2] is trastuzumab. Nature of the test: Fluorescence quenching assay with trastuzumab. The note with it: for Kd: fluorescence quenching, DNP-tagged ligands. The class given is binding. As to the method:
The binding constants (Kd) of monovalent ABS (trastuzumab binding peptide), NBS (naphthalene), and heterobivalent ligand (trast-napht) were determined using fluorescence quenching assay as previously described (Handlogten MW, et al., Chem Biol. 2011; 18 (9): 1179-1188). Briefly, ligands were titrated into trastuzumab (30 nM) as well as PBS and Indole-3-butyric acid (IBA) to exclude the effect of nonspecific interactions between DNP and tryptophan. Since DNP absorbs light at 335 nm and tryptophan emits light at 335 nm, the fluorescence of tryptophan is quenched by DNP. The fluorescence of tryptophan was read by SpectraMax M5 plate reader (Molecular Devices) at λex=280 nm and λem=335 nm with various concentrations of ligands. The fluorescence signals dropped upon titration of ligands and apparent binding constants were calculated using a Hill's curve fit in OriginPro 2015.

Test [3] has as its system trastuzumab. Briefly: Direct ELISA for selective binding of cHBL to trastuzumab. The note with it: 8 hours, 37° C., pH 7.4. How it is done: ELISA was used to confirm selective binding of trast-cHBL to trastuzumab. […] FITC also reacted with trastuzumab at the same conditions except for pH; they were incubated in either PBS or carbonate-bicarbonate buffer. Trastuzumab without any covalent ligands was used as a negative control (pH 7.4). After an 8-hour reaction, all molecules were purified using Amicon Ultra-0.5 mL Centrifugal Filters to remove the unbound covalent ligands. Concentration of trastuzumab was determined by SpectraMax M5 plate reader. For ELISA, 96 well high-binding assay plate was coated with trastuzumab (0.5 nM in carbonate-bicarbonate buffer) overnight at 4° C. refrigerator. The next morning, the wells were washed with a washing buffer (0.05% Tween 20 in PBS) using AquaMax 2000 plate automatic washer (Molecular Devices) to remove unbound trastuzumab and blocked with blocking buffer (5% (w/v) BSA and 0.1% (v/v) Tween 20 in PBS) for 1 hour at room temperature. After 1 hour, the wells were washed and then incubated with goat anti-FITC IgG-HRP conjugate (1:20,000 in blocking buffer) for 1 hour. Amplex Red Hydrogen Peroxide/Peroxidase Assay kit was used to initiate enzymatic reaction and the fluorescence (λex=570 nm and λem=592 nm) was read by SpectraMax M5 plate reader.
In general terms: ELISA stands for enzyme-linked immunosorbent assay.

In test [4] the test system is trastuzumab. Nature of the test: Western blot of ITC covalent conjugation to trastuzumab chains. The format is biochemical. Particulars: reducing gel. How it is done: ITC conjugation to active lysine on either light chain […] proximal to NBS was confirmed by western blot as previously described (Alves NJ, et al., Langmuir. 2012; 28 (25): 9640-9648). The samples (20 nM in 1×SDS reducing buffer) were run on a 10% SDS-PAGE gel at 110 V for 50 min in the presence of a Tris-glycine running buffer. The samples were then transferred to a nitrocellulose membrane (Bio-Rad) at 90 V for 90 min in a 20% methanol transfer buffer. The membrane was blocked with a blocking buffer (5% (w/v) non-fat dry milk in Tris buffered Saline with 0.05% Tween 20 (TBS-T)) for 1 hour. After 1 hour, the membrane was washed once with TBS-T and followed by incubation with HRP-conjugated goat anti-FITC IgG (1:20,000 in blocking buffer) for 45 min. The membrane was washed with 3×TBS-T for 10 min to remove the unbound secondary detection antibodies and subsequently incubated with chemiluminescent HRP substrate for 5 min to detect the location at which lysine on either heavy or light chain is conjugated to cHBL molecules. A second SDS-PAGE gel was run concurrently and stained in Commassie blue staining solution (0.15% Coomassie R-250 (EMD chemicals), 10% acetic acid and 20% methanol in DI water) and destained in destaining solution (10% acetic acid, methanol, and 80% DI water) to confirm that all the proteins were transferred to the membrane. […]
A general note: Immunoblotting shows a protein as a band on a membrane.

The next test relates to NBS of trastuzumab. Briefly: Competitive ELISA of naphthalene-biotin binding to the NBS. Particulars: 2 and 10 μM, p<0.01. As to the method: The specificity of naphthalene to NBS of IgG was confirmed using UV photo-cross-linking method and competitive sandwich ELISA. The wells of high binding plate were coated with goat-derived anti-human IgGs (1 nM in carbonate-bicarbonate buffer) overnight at 4° C. Trastuzumab (100 nM in PBS) prepared for ELISA described above was incubated with naphthalene-EG11-biotin (25 μM in PBS) for 1 hour at room temperature. PBS with only naphthalene-EG11-biotin was used as a negative control to normalize the binding curve. After 1 hour incubation, the molecules were exposed to UV light (1 J/cm^2) in a Spectroline UV select Series Cross-linker (Spectronics) to induce covalent photo-cross-linking of naphthalene to unbound NBS. The molecules were spun and 2 nM of the molecules were prepared in the blocking buffer. The wells coated with goat anti-human IgGs were washed and blocked with the blocking buffer for 1 hour. The wells were washed followed by incubation with the UV photo-cross-linked trastuzumab (2 nM) for 1 hour. […] An Amplex red assay kit was used to detect the fluorescence signals from the specific binding of naphthalene to NBS induced by UV photo-cross-linking. Since cHBL contains naphthalene, blocked NBS of trastuzumab is expected not to be photo-cross-linked to naphthalene-EGn-biotin, leading to relatively lower signals of fluorescence in the presence of cHBL.

Test [5] concerns HER2/neu receptor on BT474 cells. Nature of the test: Cellular binding assay by flow cytometry with cHBL-tagged trastuzumab. The format is cell-based. As to the method:
Inhibition of trastuzumab by binding of trast-cHBL was confirmed by cellular binding assay with HER2-overexpressed breast and ovarian cancer cell lines (BT474 and SKOV3) using a Guava EasyCyte 8HT flow cytometer (Millipore). 0.5 mL of 50000 cells/mL were cultured on 2-well tissue culture plates overnight. The plate was kept on ice for 30 min to avoid receptor internalization. The wells were washed with a blocking buffer (1.5% BSA in PBS) and incubated with trastuzumab that had been previously incubated with trast-cHBL at various concentrations in the same fashion as the ELISA experiments for 1 hour on ice. The wells were washed once and incubated with Alexa Fluor 647-conjugated goat anti-human IgG (1:500 in blocking buffer) for 1 hour on ice. The wells were washed once with blocking buffer and the cells were gently scraped to run flow cytometer. Green (FITC) and Red2 (Alexa fluorophore with λem=667 nm) fluorescence were read to confirm trast-cHBL binding. Trastuzumab without any ligands and trastuzumab—FITC conjugate were used as positive controls and the cells with Alexa Flour 647-conjugated secondary antibody and without trastuzumab were used as negative controls.

Consider `O=C(O)Cc1ccc2ccccc2c1` [2-naphteleneacetic acid], for which the Kd – broadly, the concentration at which binding is half-saturated – in test [1] amounted to 1800 ± 300 nM; in test [1] (listed as 2-naphthaleneacetic acid), 2000 nM.

The compound Dansyl came in with a Kd at IgE^dansyl of 29.9 ± 10 nM.

At trastuzumab [2], “LLGPYELWELSH [Trastuzumab binding peptide, reference compound]” yielded a Kd of 200 ± 14 nM.

With “Rituximab-cHBL: orthogonal cHBL with rituximab binding peptide WPRWLEN”, the “binding to trastuzumab (direct ELISA)” value with trastuzumab [3] is “not selective to trastuzumab up to 20 μM”.

In the case of “Trast-DNP: trastuzumab binding peptide tagged with DNP (LLGPYELWELSH; also: tagged with DNP)”, the equilibrium dissociation constant (Kd) at trastuzumab [2] amounted to 200 ± 14 nM.

Take “Trast-ITC: trast-cHBL molecule where the napht moiety was omitted (LLGPYELWELSH)”: the antibody chain conjugated result with trastuzumab [4] is given as “conjugated nearly equally to either heavy (50 kDa) or light chain”.

As for “Trast-Napht-DNP: trastuzumab binding peptide conjugated to napht with ethylene glycol spacer, DNP tagged (LLGPYELWELSH; also: conjugated to napht with ethylene glycol spacer, DNP tagged)”, the Kd on trastuzumab [2] was found to be 46 ± 6 nM; on trastuzumab [2] (listed as Trast-napht-DNP) it was 46.6 ± 6 nM. Moreover, the “fold increase in observed affinity on conjugation to napht” value in the test on trastuzumab [2] (napht with ethylene glycol spacer) is “over 4 fold”.

As for “Trast-cHBL: trastuzumab-specific cHBL with peptide LLGPYELWELSH, napht, ITC and fluorescein tag (not fully specified; also: cHBL with napht, ITC and fluorescein tag)”, the antibody chain conjugated entry with trastuzumab [4] is “preferentially conjugated to light chain”. Also, the “naphthalene-biotin binding after cHBL incubation” value in the test on NBS of trastuzumab is “significantly less naphthalene binding”. Further, the “binding to trastuzumab (direct ELISA)” value in the test with trastuzumab [3] is listed as “significant increase in binding over trastuzumab-ITC at 1 μM”. The “cHBL concentration at which FITC signal saturates” value in test [5] is 2 µM. Also, in test [5] (1 μM cHBL), the “FITC signal, percent of maximum” value is “approximately 50%”. In addition, the results for the “HER2 binding (Alexa 647 signal)” value in test [5] (1 μM cHBL) and in test [5] (10 μM cHBL) were “no significant reduction in HER2 binding” and “HER2 binding drops drastically”, respectively. Moreover, the “HER2 binding retained (Alexa 647 signal)” value in test [5] (2 μM cHBL) is recorded as “approximately 75%”.
